Type in all cases: in vivo
Assay [1] concerns TGF-β1-induced fibrotic plaque in the rat tunica albuginea. The experiment in a line: TGF-β1 rat model of Peyronie's disease, plaque and collagen deposition by Masson staining with QIA. Particulars: long-term oral L-NIL, TGF-β1 injected rat. On the procedure:
TGF-β1 rat model. Male Fisher 344 rats, 9-11 month old purchased from the NIH/NIA colony (Harlan Sprague-Dawley, Inc., San Diego, Calif.) and maintained under controlled temperature and lighting, were anesthetized and injected in the penile TA at the middle of the penis with either vehicle only (saline, group 1) or 0.5 μg recombinant human TGF-β1 (Biotech Diagnostic, Laguna Niguel, Calif., groups 2-5) as disclosed (Ferrini et al., 2002; Vernet et al., 2002). After the injection, groups 1 and 2 were given drinking water while the other groups received water with L-arginine (2.25 g/kg/day, group 3) (Moody et al., 1997), or sildenafil (10 mg/kg/day, group 4) or pentoxifylline (10 mg/kg/day, group 5). Forty-five days later, or as indicated, animals were sacrificed and perfused through the left ventricle with saline followed by 4% formalin ((Ferrini et al., 2002; Vernet et al., 2002). After the penises were excised, the penile skin was denuded by removing the glans and adhering non-crural tissue. The penile shaft was separated from the crura and 2-3 mm transverse slices were cut around the site of the saline or TGF-β1 injection. All tissues were post-fixed overnight in 4% formalin, washed in PBS and stored at 4° C.
In the case of tissue sections, the determinations of the collagen/smooth muscle ratio were carried out with Masson trichrome (Ferrini et al., 2002; Davila et al., 2003b) on adjacent 5 μm paraffin-embedded cross-sections from the human normal tunical or plaque tissues, or from a 2 mm area around the site of injection in the rat saline- and TGF-β1-injected shaft tissues. Other distal sections were obtained along the rat penile shaft.
The quantitation of the staining obtained by either histochemical or immunohisto/cytochemical techniques was performed by computerized densitometry using the ImagePro 4.01 program (Media Cybernetics, Silver Spring, Md.), coupled to an Olympus BHS microscope equipped with a Spot RT digital camera or VCC video camera (Wang et al., 2001; Ferrini et al., 2001a, 2001b; Davila et al., 2003b).

The subject of a further assay is collagen I promoter. The experiment in a line: Collagen I promoter reporter plasmid (β-galactosidase, luminometry) injected into the rat PD-like plaque. Particulars: L-NIL treated TGF-β1 rat, vs control TA. The source says: The effect of L-NIL in increasing collagen in the TA of the TGF-β1 rat model may be due to an increase in collagen synthesis, a decrease in its normal breakdown, or both. To determine whether the larger PD plaque in the L-NIL treated rat is due, at least in part, to an increase in collagen I synthesis (the most prevalent collagen protein in the TA), and not simply to the inhibition of collagenolysis by the MMPs, we injected a cDNA plasmid construct of the collagen I promoter driving the expression of a reporter gene (Magee et al., 2002a) into the site of the original TGF-β1 or saline injection, 10 days prior to sacrifice and 35 days after the TGF-β1 injection. This plasmid is an indicator of collagen I transcriptional activity within the rat PD plaque.

Assay [2] has as its system TGF-β1-induced fibrotic plaque in the rat tunica albuginea. Kind of assay: Nitrotyrosine and ROS marker (heme-oxygenase I) detection in the TA of the TGF-β1 rat model. On the procedure:
(§1) The determinations of iNOS, nitrotyrosine, heme-oxygenase I, PAI-I (Davila et al., 2003b), manganese superoxide dismutase (MnSOD), and CuZn SOD (Cu/Zn SOD) (Martin et al., 1994) were carried out on 5 μm paraffin-embedded adjacent tissue sections, that. were quenched for endogenous peroxidase activity after deparaffinization and rehydration. Sections were blocked with normal goat serum, and incubated with polyclonal IgG antibodies against mouse iNOS (1:500) (Transduction Laboratories, Lexington, KT), nitrotyrosine (1:100) (Upstate, Lake Placid, N.Y.), Mn SOD and Cu/Zn SOD (Oxygen, Portland, Oreg.) (1:800 and 1:500 respectively), heme oxygenase I (Stressgen, San Diego, Calif.), or PAI-1 (Abcam Ltd, Cambridge, UK). For negative controls the first antibodies were replaced by IgG isotype. The detection was based on a secondary anti-rabbit biotinylated antibody (1:200) for iNOS and nytrotyrosine (Calbiochem, La Jolla, Calif.), or anti-sheep biotinylated antibody (1:200) for Cu/Zn and Mn SOD, followed by the ABC complex (1:100) (Calbiochem) and 3,3′ diaminobenzidine (spelling) (DAB) (Sigma, St Louis Mo.). Sections were counterstained with hematoxylin.
The studies with L-arginine detailed in Example 1 show modulation of the size of the PD plaque by NO. […]

Assay [3] has as its system arterial media of aged Brown Norway rats. Kind of assay: Aged rat arterial tree model, Masson staining (SMC/collagen), intima/media thickness and lumen diameter. As to conditions: for intima media thickness / lumen diameter: OLD + L-NIL. How it is done:
(§2) Arterial Tree Rodent Model. Young (3-month) and aged (22-24 month) male Brown Norway rats were obtained from the NIH/NIA colony (Harlan Sprague-Dawley, Inc., San Diego, Calif.), and maintained under controlled temperature and lighting. One half of the aged animals were treated for 3 weeks with L-NIL at 0.1 g/l in the drinking water, while the rest of the animals received plain drinking water. Animals were anesthetized, pretreated with heparin, and perfused through the left ventricle with saline followed by 4% formalin. The abdominal aorta, brachial and femoral neurovascular bundles as well as the penis, denuded of its skin, were removed and post-fixed overnight in 4% formalin, and washed and stored in PBS at 4 C until paraffin embedding.
SMC and collagen fibers within the corporal tissue and vascular tree were estimated by Masson trichromic staining (Sigma Diagnostic, St. Louis, Mo.) (Ferrini et al., 2002; Vernet et al., 2002; Davila et al, […]) in sections adjacent to those used for immunohistochemical staining, followed by image analysis to measure the ratio between SMC (red) and collagen fibers (blue). The results were expressed as red/blue ratios per area (see below). In the arterial tree, the intima/media thickness (IMT), and the diameter of the lumen were also measured.
(§3) For iNOS, nitroyrosine, heme-oxygenase, PAI-1, MnSOD and Cu/Zn SOD determination, at least 6 sections per specimen were analyzed. Each slide assayed had its corresponding negative control. In certain cases, the number of immuno-positive cells was determined as a percentage of the total counterstained nuclei in a computerized grid. In the Masson staining, the ratio between SMC (red) and collagen fibers (blue) was obtained and expressed per area.

The test system is the same in assay [4]. Kind of assay: Aged rat arterial tree model, immunohistochemistry for iNOS, nitrotyrosine, Cu/Zn SOD, heme oxygenase I, PAI. On the procedure: as §2, §1, §3
For assay [5], the system named is SMC in the media of the penile resistance arteries. Kind of assay: Aged rat arterial tree model, TUNEL apoptosis in the media of the penile arteries. Particulars: aged rats, L-NIL treatment. On the procedure:
as §2, §3

As for `CC(=N)NCCCC[C@H](N)C(=O)O` [L-NIL, L-iminoethyl-L-lysine], the “expansion and thickening of the TA due to collagen fiber deposition” value in assay [1] is “remarkable expansion and thickening of the TA”. Further, the “expression of the reporter β-galactosidase driven by the collagen I promoter (luminometry in tissue extracts)” value in the assay on collagen I promoter is listed as “considerably intensified”. Moreover, the ROS levels result in assay [2] (iNOS activity blocked with L-NIL in the TGF-β1 rat model) was “considerable elevation”. For the same molecule, in assay [2] (long-term oral L-NIL, TGF-β1 injected rat), the “peroxynitrite as indicated by nitrotyrosine formation in the TA” value is on record as “considerable increase”. The “collagen fibers within the media of the aorta and the dorsal penile artery” value in assay [3] (aged rats, L-NIL for 3 weeks) is reported as “further increase in the collagen fibers”. Besides, the “amount of collagen within the media (SMC/collagen ratio, image analysis)” value in assay [3] (aged rats, L-NIL, aorta, femoral, dorsal, with the exception of the bulbourethral artery) was “further exacerbation in the amount of collagen”. Further, the intima media thickness in assay [3] (aorta) is 85.2 ± 6.6 μm. Besides, in assay [3] (bulbo urethral), the intima media thickness was determined as 9.9 ± 0.7 μm and the lumen diameter was found to be 47.3 ± 6.6 μm. Moreover, the intima media thickness in assay [3] (femoral) came to 51.8 ± 4.6 μm. Besides, in assay [3] (penile dorsal), the intima media thickness is 23.6 ± 3.3 μm and the lumen diameter is recorded as 105.5 ± 16. μm. In assay [4] (L-NIL), the “effect on PAI expression in the aged media (quantitative image analysis)” value is “negligible”, the “expression of heme oxygenase I in the penile dorsal artery” value is “did not induce a further significant change”, the “iNOS expression in the arterial media” value was “reduction in iNOS expression” and the “peroxynitrite formation (nitrotyrosine) in the arterial media” value is “reduction in peroxynitrite formation”. Further, the “increase of Cu/Zn SOD (indirect marker of ROS), image analysis” value in assay [4] (L-NIL blockade of iNOS activity) lay within 40 to 50%. Besides, in assay [5], the “apoptotic index, dorsal and bulbourethral penile arteries” value was “reduction”.

The record behind these values is US8133903B2, “Methods of use of inhibitors of phosphodiesterases and modulators of nitric oxide, reactive oxygen species, and metalloproteinases in the treatment of peyronie's disease, arteriosclerosis and other fibrotic diseases” (Los Angeles Biomedical Research Institute at Harbor—UCLA …, priority 2003, dated 2012).
